In the NIST ThermoML archive (doi:10.1016/j.jct.2010.04.013):

Assay: mn = molality of the nth substance listed, in mol/kg
Conditions: 101 kPa, Liquid; for mass density: Vibrating tube method; for speed of sound: Pulse-echo method

[Ba+2].[O-][Cl+3]([O-])([O-])[O-].[O-][Cl+3]([O-])([O-])[O-] [barium perchlorate] + CO
Conditions | mass density, 283.15 K [kg/m3] | mass density, 288.15 K [kg/m3] | mass density, 293.15 K [kg/m3] | mass density, 298.15 K [kg/m3] | mass density, 303.15 K [kg/m3] | mass density, 308.15 K [kg/m3] | mass density, 313.15 K [kg/m3] | speed of sound, 298.15 K [m/s]
m1 = 0.04405 | 811.658 | 806.964 | 802.257 | 797.534 | 792.793 | 788.031 | 783.24 | 1104.8
m1 = 0.05789 | 815.181 | 810.483 | 805.768 | 801.038 | 796.29 | 791.514 | 786.709 | 1105.8
m1 = 0.07152 | 818.62 | 813.919 | 809.196 | 804.461 | 799.707 | 794.928 | 790.115 | 1106.8
m1 = 0.08565 | 822.272 | 817.565 | 812.834 | 808.092 | 803.33 | 798.541 | 793.738 | –
m1 = 0.09942 | 825.796 | 821.081 | 816.346 | 811.597 | 806.83 | 802.029 | 797.22 | 1108.7
m1 = 0.1123 | 829.125 | 824.405 | 819.663 | 814.91 | 810.139 | 805.341 | 800.51 | 1109.7
m1 = 0.1401 | 836.397 | 831.665 | 826.908 | 822.143 | 817.357 | 812.546 | 807.7 | 1111.7
m1 = 0.1665 | 843.399 | 838.652 | 833.885 | 829.105 | 824.3 | 819.488 | 814.642 | 1113.2
m1 = 0.1922 | 850.26 | 845.49 | 840.721 | 835.928 | 831.119 | 826.278 | 821.422 | 1115.2
m1 = 0.2169 | 856.95 | 852.176 | 847.385 | 842.583 | 837.763 | 832.919 | 828.046 | 1116.9
m1 = 0.2417 | 863.79 | 859.009 | 854.206 | 849.387 | 844.546 | 839.692 | 834.813 | 1118.6

[Ba+2].[O-][Cl+3]([O-])([O-])[O-].[O-][Cl+3]([O-])([O-])[O-] [barium perchlorate] + C[S+](C)[O-]
Conditions | mass density, 293.15 K [kg/m3] | mass density, 298.15 K [kg/m3] | mass density, 303.15 K [kg/m3] | mass density, 313.15 K [kg/m3] | mass density, 323.15 K [kg/m3] | mass density, 333.15 K [kg/m3] | speed of sound, 298.15 K [m/s]
m1 = 0.03102 | 1108.57 | 1103.55 | 1098.53 | 1088.51 | 1078.49 | 1068.47 | –
m1 = 0.04247 | 1111.68 | 1106.66 | 1101.64 | 1091.63 | 1081.62 | 1071.61 | 1485.2
m1 = 0.05458 | 1114.98 | 1109.97 | 1104.95 | 1094.94 | 1084.94 | 1074.94 | 1485.5
m1 = 0.06931 | 1119.03 | 1114.02 | 1109 | 1099 | 1089.01 | 1079.01 | 1486
m1 = 0.08432 | 1123.18 | 1118.17 | 1113.16 | 1103.17 | 1093.18 | 1083.2 | 1486.3
m1 = 0.1063 | 1129.31 | 1124.31 | 1119.3 | 1109.32 | 1099.34 | 1089.37 | 1486.8
m1 = 0.1359 | 1137.67 | 1132.66 | 1127.67 | 1117.69 | 1107.73 | 1097.78 | 1487.8
m1 = 0.1651 | 1146.06 | 1141.06 | 1136.07 | 1126.1 | 1116.15 | 1106.21 | 1488.5
m1 = 0.191 | 1153.55 | 1148.55 | 1143.57 | 1133.61 | 1123.67 | 1113.74 | 1489.3
m1 = 0.222 | 1162.7 | 1157.71 | 1152.72 | 1142.77 | 1132.84 | 1122.92 | 1490.4
m1 = 0.25 | 1171.03 | 1166.04 | 1161.06 | 1151.11 | 1141.21 | 1131.31 | 1491.5
